Assay results reported in US7511047B2, “Kinase inhibitors” (Cytopia Research Pty Ltd, priority 2002, dated 2009).

Key:
Assay type in all cases: biochemical
[1] = molecular target: T1, Jak2 (Homo sapiens, UniProt O60674); assay: JAK2 kinase domain assay (ELISA or Alphascreen); settings: capacity to inhibit 50% of activity at 50 μM; read-out: Jak2 inhibitory activity
T1 construct: The kinase domain of humanJAK2 was amplified from U937mRNA; His tag (from pFastBac HTc vector) (N); made in house; host or cells: baculovirus; Sf9 insect cells for virus, High Five cells for large-scale production
T1 sequence (O60674 849-1124 limits assumed): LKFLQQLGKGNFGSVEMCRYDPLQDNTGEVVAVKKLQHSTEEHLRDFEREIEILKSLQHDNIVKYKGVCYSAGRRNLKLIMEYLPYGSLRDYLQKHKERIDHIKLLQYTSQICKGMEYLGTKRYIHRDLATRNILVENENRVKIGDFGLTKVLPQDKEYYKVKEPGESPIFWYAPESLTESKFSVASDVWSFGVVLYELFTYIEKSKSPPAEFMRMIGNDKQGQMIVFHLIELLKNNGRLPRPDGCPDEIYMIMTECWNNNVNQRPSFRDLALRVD
Experimental: (§1) For screening purposes, compounds were diluted in 96 well plates at a concentration of 20 μM. Plates were warmed at 37° C. for 30 minutes before assay.
(§2) • JAK1 PCR products were cloned into the pFastBac HTb expression vector (Gibco) via the Xho I and Kpn I sites. The JAK1 plasmid was then transformed into competent DH10Bac cells (Gibco), and the recombinant baculovirus produced prepared for transfection into Sf9 insect cells. JAK2 • The kinase domain of humanJAK2 was amplified from U937mRNA using the polymerase chain reaction with the following primers:
• JAK2 PCR products were cloned into the pFastBac HTc expression vector (Gibco) via the Sal I and Not I sites. The JAK2 plasmid was then transformed into competent DH10Bac cells (Gibco), and the recombinant baculovirus produced prepared for transfection into Sf9 insect cells. JAK3 • The kinase domain of humanJAK3 was amplified from U937mRNA using the polymerase chain reaction with the following primers: […]
(§3) Baculovirus preparations from each of the JAK family members were infected into five litres of High Five cells (Invitrogen) grown in High Five serum free medium (Invitrogen) to a cell density of approximately 1-2×10^6 cells/ml. Cells are infected with virus at a MOI of 0.8-3.0. Cells were harvested and lysed. JAK kinase domains were purified by affinity chromatography on a Probond (Invitrogen) nickel chelate affinity column.
(§4) Kinase assays were performed either in a 96 well capture-based ELISA assay or in 384 well Optiplates (Packard) using an Alphascreen Protein Tyrosine Kinase kit. In either casse using approximately 1.5 μg of affinity purified PTK domain in the presence of 50 mM HEPES, pH 7.5, 10 mM MgCl2, 150 mM NaCl and 10 μM-1 mM ATP. The biotinylated substrate biotin-EGPWLEEEEEAYGWMDF-NH2 (SEQ ID NO:9) (final concentration 5 μM) was used as substrate. In the ELISA assay tyrosine phosphorylation was quantitated following transfer to an avidin coated ELISA plate using peroxidase-linked anti-phospho-tyrosine antibody PY20. In the Alphascreen assay, Alphascreen phosphotyrosine acceptor beads followed by streptavidin donor beads were added under subdued light. The ELISA plates were read on a BMG Fluorostar, the Alphascreen plates were read on a Packard Fusion Alpha. Inhibitors were added to the assays fifteen minutes prior to the addition of ATP. Inhibitors were added in aqueous DMSO, with DMSO concentrations never exceeding 1%.

[2] = molecular target: T2, Jak3 (Homo sapiens, UniProt P52333); assay: JAK3 kinase domain assay (ELISA or Alphascreen); settings: capacity to inhibit 50% of activity at 50 μM; read-out: Jak3 inhibitory activity
T2 construct: The kinase domain of humanJAK3 was amplified from U937mRNA; His tag (from pFastBac HTb vector) (N); made in house; host or cells: baculovirus; Sf9 insect cells for virus, High Five cells for large-scale production
T2 sequence (P52333 822-1111 limits assumed): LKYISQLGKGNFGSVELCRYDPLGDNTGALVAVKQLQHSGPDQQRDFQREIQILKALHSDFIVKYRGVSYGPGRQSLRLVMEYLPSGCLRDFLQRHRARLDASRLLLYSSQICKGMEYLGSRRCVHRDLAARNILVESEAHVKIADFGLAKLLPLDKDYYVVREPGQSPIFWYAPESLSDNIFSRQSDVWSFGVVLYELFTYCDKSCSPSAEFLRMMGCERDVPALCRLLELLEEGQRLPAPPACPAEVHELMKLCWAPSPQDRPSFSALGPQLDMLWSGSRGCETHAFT
Experimental: as §1
• JAK2 PCR products were cloned into the pFastBac HTc expression vector (Gibco) via the Sal I and Not I sites. The JAK2 plasmid was then transformed into competent DH10Bac cells (Gibco), and the recombinant baculovirus produced prepared for transfection into Sf9 insect cells. JAK3 • The kinase domain of humanJAK3 was amplified from U937mRNA using the polymerase chain reaction with the following primers:
as §2, with “JAK3” for “JAK1”, “TYK2” for “JAK2”, “humanTYK2” for “humanJAK2”, “A549 mRNA” for “U937mRNA”, “primers: […]” for “primers:”
as §3, §4

[3] = molecular target: T3, abl (Homo sapiens, UniProt P00519); assay: abl kinase assay (ELISA or Alphascreen); settings: capacity to inhibit 50% of activity at 50 μM; read-out: abl inhibitory activity
T3 sequence (P00519 242-493 limits assumed): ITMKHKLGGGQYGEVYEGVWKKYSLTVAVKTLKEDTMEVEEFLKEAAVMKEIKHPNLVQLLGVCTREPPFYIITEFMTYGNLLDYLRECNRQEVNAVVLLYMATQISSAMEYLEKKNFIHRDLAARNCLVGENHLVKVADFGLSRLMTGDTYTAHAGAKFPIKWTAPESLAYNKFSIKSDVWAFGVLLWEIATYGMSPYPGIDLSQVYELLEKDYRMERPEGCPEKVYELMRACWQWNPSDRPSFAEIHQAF
Experimental: as §1, §4

[4] = molecular target: hck (Homo sapiens, UniProt P08631); assay: hck kinase assay (ELISA or Alphascreen); settings: capacity to inhibit 50% of activity at 50 μM; read-out: hck inhibitory activity
Sequence of hck (P08631 262-515 limits assumed, species assumed): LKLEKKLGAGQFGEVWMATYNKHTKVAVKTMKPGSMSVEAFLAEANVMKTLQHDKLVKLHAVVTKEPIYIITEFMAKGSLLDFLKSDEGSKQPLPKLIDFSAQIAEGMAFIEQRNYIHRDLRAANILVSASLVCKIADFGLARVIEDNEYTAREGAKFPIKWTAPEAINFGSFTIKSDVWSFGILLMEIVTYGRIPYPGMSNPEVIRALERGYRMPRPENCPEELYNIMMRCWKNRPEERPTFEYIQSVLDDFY
Experimental: as §1, §4

[5] = molecular target: kdr (Homo sapiens, UniProt P35968); assay: kdr kinase assay (ELISA or Alphascreen); settings: capacity to inhibit 50% of activity at 50 μM; read-out: kdr inhibitory activity
Sequence of kdr (P35968 834-1162 limits assumed, species assumed): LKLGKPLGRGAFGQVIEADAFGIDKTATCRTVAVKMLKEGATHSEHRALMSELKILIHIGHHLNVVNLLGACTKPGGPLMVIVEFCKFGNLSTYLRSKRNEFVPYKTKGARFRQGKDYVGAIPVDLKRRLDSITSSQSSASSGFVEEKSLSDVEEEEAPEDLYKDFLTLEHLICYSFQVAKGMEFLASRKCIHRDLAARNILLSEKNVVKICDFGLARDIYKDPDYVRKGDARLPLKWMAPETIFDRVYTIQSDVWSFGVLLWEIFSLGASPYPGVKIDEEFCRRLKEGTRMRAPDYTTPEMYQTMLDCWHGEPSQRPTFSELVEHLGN
Experimental: as §1, §4

inhibition at 50 µM [1] | inhibition at 50 µM [2] | inhibition at 50 µM [3] | inhibition at 50 µM [4] | inhibition at 50 µM [5] | Structure (SMILES)
> 50% | < 50% | > 50% | > 50% | > 50% | C[C@@H](Nc1cncc(-n2cnc3ccccc32)n1)c1ccccc1
< 50% | < 50% | > 50% | > 50% | < 50% | c1ccc(CNc2cncc(-n3ccnc3)n2)cc1
< 50% | > 50% | < 50% | > 50% | < 50% | C[C@H](Nc1cncc(-n2cnc(-c3ccccc3)c2)n1)c1ccccc1
> 50% | < 50% | > 50% | > 50% | > 50% | C[C@H](Nc1cncc(-n2cnc3ccc(C(N)=O)cc32)n1)c1ccccc1
> 50% | < 50% | > 50% | > 50% | > 50% | C[C@H](Nc1cncc(-n2cnc3cc(C(N)=O)ccc32)n1)c1ccccc1
< 50% | < 50% | > 50% | > 50% | > 50% | C[C@H](Nc1cncc(-n2cnc3ccc(C(=O)N4CCOCC4)cc32)n1)c1ccccc1
< 50% | < 50% | > 50% | > 50% | > 50% | C[C@H](Nc1cncc(-n2cnc3cc(C(=O)N4CCOCC4)ccc32)n1)c1ccccc1
> 50% | < 50% | > 50% | > 50% | < 50% | c1cn(-c2cncc(Nc3ccc(N4CCOCC4)cc3)n2)cn1
> 50% | < 50% | > 50% | > 50% | > 50% | C[C@H](Nc1cncc(-n2cnc3cc(NC(=O)c4cccnc4)ccc32)n1)c1ccccc1
< 50% | < 50% | > 50% | > 50% | > 50% | C[C@@H](Nc1cncc(-n2cnc(-c3ccccc3)c2)n1)c1ccccc1
> 50% | < 50% | < 50% | < 50% | < 50% | Cc1cn(-c2cncc(NCc3ccc(F)cc3)n2)cn1
< 50% | < 50% | < 50% | > 50% | < 50% | Cc1nccn1-c1cncc(N[C@H](C)c2ccccc2)n1
< 50% | < 50% | > 50% | > 50% | < 50% | Cc1cncn1-c1cncc(NCc2ccc(F)cc2)n1
< 50% | < 50% | > 50% | > 50% | > 50% | C[C@H](Nc1cncc(-n2cnc3ccc(NC(=O)C4CC4)cc32)n1)c1ccccc1
< 50% | < 50% | > 50% | > 50% | > 50% | C[C@H](Nc1cncc(-n2cnc3cc(NC(=O)C4CC4)ccc32)n1)c1ccccc1
> 50% | < 50% | > 50% | > 50% | > 50% | C[C@H](Nc1cncc(-n2cnc3ccc(C4=NCCO4)cc32)n1)c1ccccc1
> 50% | > 50% | > 50% | > 50% | > 50% | C[C@H](Nc1cncc(-n2cnc3cc(C(=O)NCCO)ccc32)n1)c1ccccc1
> 50% | > 50% | > 50% | > 50% | > 50% | C[C@H](Nc1cncc(-n2cnc3ccc(C(=O)NCCCCN4CCOCC4)cc32)n1)c1ccccc1
> 50% | < 50% | < 50% | > 50% | > 50% | CCN(CC)Cc1ccc2ncn(-c3cncc(NC(C)c4ccc(F)cc4)n3)c2c1 (stereo not drawn)
< 50% | < 50% | > 50% | > 50% | < 50% | CC(Nc1cncc(-n2cnc3ccccc32)n1)c1ccc(-c2ccccc2)cc1 (stereo not drawn)
> 50% | < 50% | < 50% | > 50% | > 50% | CNCCN(C)Cc1ccc2ncn(-c3cncc(NC(C)c4ccc(F)cc4)n3)c2c1 (stereo not drawn)
